Earlier results in patent US20050070607A1, “N-acetylcysteine compositions and methods for the treatment and prevention of cysteine/glutathione deficiency in diseases and conditions” (priority 2003, published 2005).
Like-named read-outs stand apart in the source and are kept apart here.

Key:
[1] = compared with the stable cysteine disulfide
[2] = test system: Contrast-induced nephropathy (CIN)
Malnourished children = settings: GSH synthesis rate and concentration; 0.5 mmol per kg per day; placebo alanine; n 32; 50 days; Badaloo 2002[54]
Sjogren's syndrome = settings: ocular soreness, ocular irritability, halitosis, daytime thirst; 200 mg daily; n 26; 6 weeks; Walters 1986[56]
plaque formation = settings: 2 weeks, Bowles 1985[61]
Alzheimer's Disease = settings: MMSE, ADL and other psychometric tests; 50 mg/kg/day; n 47; 24 weeks; Adair 2001[60]
[3] = test system: patients who have already developed fulminant hepatic failure; settings: observational study, one hundred patients [138]
Hyperoxic ventilation = settings: whole body oxygen uptake, oxygen extraction ratio, gastric intramucosal pH; IV over 15 min; n 38; 72 hours; Reinhart 1995[266]
[4] = test system: normal subjects breathing against high inspiratory loads; settings: development of diaphragm fatigue; 150 mg/kg IV; n 4; 3 weeks; Travaline 1997[37]
[5] = test system: influenza or influenza-like episodes; settings: frequency and severity of episodes, elderly and chronic non-respiratory disease; 1200 mg/day po; n 262; 6 months; De Flora 1997[46]
[6] = test system: subjects with acetaminophen-induced fulminant hepatic failure; settings: late presentation; survival, cerebral edema, hypotension; IV 150 mg/kg for 15 min; 50 mg/kg for 4 h; 100 mg/kg over 16 h; n 50; 21 days; Keays 1991[2]
[7] = test system: non-insulin dependent diabetic (NIDDM) patients
Chronic blepharitis = settings: tear film quality (FBUT, mucous fern pattern); 300 mg/day po; n 40; 4 months; Yalcin 2002[57]

SMILES: CC(=O)N[C@@H](CS)C(=O)O [NAC, N-acetylcysteine]
- solubility relative to cystine [1]: much more soluble
- RR (incidence of contrast-induced nephropathy) ([2]; 400 mg PO bid for 2 days, n 121, Shyu 2002[8]): contrast-induced nephropathy (RR 0.13)
- RR (incidence of post-catheterization nephropathy) ([2]; 600 mg PO bid, n 54, Diaz-Sandoval 2002[7]): 0.21) in patients with stable chronic renal
- relative risk, RR (reduction in renal function induced by iopromide) ([2]; 600 mg PO bid, n 83, Tepel[3-5]): contrast agent (relative risk, RR 0.10)
- reduction in the incidence of acute renal failure ([2]; 83 patients with baseline renal impairment, computed tomography with nonionic low-osmolality contrast agent, Tepel[3-5]): 90%
- Beneficial effects ([2]; chronic renal insufficiency, iopromide, 600 mg PO bid with hydration, n 83, 2 days, Tepel 2000, 2001, 2003[3-5]): Beneficial
- incidence of CIN by 48 hours ([2]; control 6.4%, 1500 mg for 4 doses, Oldemeyer 2003[188]): both groups was low (NAC 8.2%, control
- incidence of CIN at 48 hours ([2]; control 12%, 600 mg 4 times daily, Boccalandro 2003[187]): hours (NAC, 13%; control 12%) after
- RR (contrast-induced deterioration in renal function) ([2]; coronary angiographic procedures, 600 mg PO bid, n 200, Kay 2003[6]): adverse effects (RR 0.32). Kay, 2003[6]
- Beneficial effects ([2]; moderate chronic renal insufficiency, coronary angiographic procedures, 600 mg PO bid, n 200, 3 days, Kay 2003[6]): Beneficial
- Beneficial effects ([2]; oxidative stress-mediated proximal tubular injury, 1200 mg daily, n 24, 4 days, Drager 2004[271]): Beneficial
- Beneficial effects ([2]; serum creatinine > 1.2 mg/dL, elective coronary angiography, creatinine clearance at 24 and 96 hours, 1000 mg daily, n 49, 4 days, Efarti 2003[9]): Beneficial
- Beneficial effects ([2]; serum creatinine >= 1.5 mg/dL, elective cardiac catheterization, 600 mg 5 doses, n 43, 3 days, MacNeil 2003[10]): Beneficial
- Beneficial effects ([2]; stable chronic renal insufficiency, coronary angiography, 400 mg PO bid for 2 days, n 121, 7 days, Shyu 2002[8]): Beneficial
- Beneficial effects ([2]; stable chronic renal insufficiency, elective cardiac catheterization, 600 mg PO bid, n 54, 2 days, Diaz-Sandoval 2002[7]): Beneficial
- incidence of contrast nephropathy ([2]; subset receiving <140 mL contrast agent, from 8.5%, p=0.02, 183 patients [190]): 0%
- development of CIN by 72 hours ([2]; vs 32.2% placebo, P = 0.046, 600 mg 5 doses, MacNeil 2003[10]): catheterization (4.8% vs 32.2%, P =
- side effect reported for NAC treatment for inflammatory conditions (not found clinically significant [106]): mild to moderate anticoagulation
- adverse responses to intravenous NAC administration (several reports [163,249-256]): anaphylactoid and allergic responses
- Treatment effect (Malnourished children): Beneficial
- Beneficial effects (Sjogren's syndrome): Beneficial
- Beneficial effects (Cystic Fibrosis (CF); CF and primary ciliary dyskinesia, lung function, 600 mg < 30 kg or 800 mg > 30 kg per day po, n 54, 3 months, Stafanger 1988[40]): Beneficial
- Beneficial effects (Cystic Fibrosis (CF); air trapping and FEV1, NAC or Ambroxol 200 mg 3 times daily, n 36, 12 weeks, Ratjen 1985[274]): Beneficial
- reduction on plaque attributable to NAC (plaque formation; p < .001, 10% aqueous solution): 25.56% reduction on plaque attributable to
- Beneficial effects (plaque formation; plaque indices, 10% aqueous solution of NAC buffered to pH 6.5, n 28): Beneficial
- Beneficial effects (Alzheimer's Disease): Beneficial
- apoptosis induction by cardioplegic arrest in left ventricular cardiac myocytes (Cardiac bypass; 100 mg/kg followed by infusion 20 mg/kg, n 36, Fischer 2004[270]): can effectively ne prevented by NAC.
- Beneficial effects (Cardiac bypass; oxidative burst response of peripheral neutrophils, 100 mg/kg bolus then 20 mg/kg continuous IV, n 12, 24 hours, Andersen 1995[16]): Beneficial
- survival [3]: significantly increased survival
- Treatment effect (Hyperoxic ventilation): Beneficial
- Beneficial effects (Exercise; frail geriatric patients, knee extensor strength, plasma TNF, 1800 mg daily, n 44, 6 weeks, Hauer 2003[59]): Beneficial
- Beneficial effects (Exercise; intense, intermittent exercise, reduced and oxidized GSH, 125 mg/kg/hr for 15 min, then 25 mg/kg/hr, n 8, Medved 2003[58]): Beneficial
- Beneficial effects (Exercise; prolonged submaximal exercise, well trained individuals, performance, 125 mg/kg/hr for 15 min, then 25 mg/kg/20 min, Medved 2004[286]): Beneficial
- Beneficial effects (Bronchitis; General Health Questionnaire score, mild chronic bronchitis, 1200 mg/day po, n 153, 22 weeks, Hansen 1994[34]): Beneficial
- Beneficial effects (Bronchitis; days incapacitated, 600 mg/day po, n 526, 6 months, Parr and Huitson 1987[31]): Beneficial
- Beneficial effects (Bronchitis; difficulty in expectoration and cough severity, 600 mg/day po, n 155, 3 months, Jackson 1984[30]): Beneficial
- Beneficial effects (Bronchitis; evening peak flows after NAC pre-treatment, 1200 mg/day po, n 37, 22 weeks, Evald 1989[33]): Beneficial
- Beneficial effects (Bronchitis; exacerbation rate, 400 mg/day po, n 259, 6 months, Boman 1983[29]): Beneficial
- Beneficial effects (Bronchitis; frequency of exacerbations, 600 mg/day, 3 days/wk, po, n 69, 6 months, Grassi and Morandini 1976[24]): Beneficial
- Beneficial effects (Bronchitis; sick-leave days caused by exacerbations, 600 mg/day po, n 116, 6 months, Rasmussen and Glennow 1988[32]): Beneficial
- Beneficial effects (Bronchitis; sputum consistency, expectoration, peak expiratory flow rate, 600 mg/day po, n 29, 4 weeks, Aylward 1980[25]): Beneficial
- Beneficial effects (Bronchitis; sputum thickness, expectoration, exacerbations, 400 mg/day po, n 744, 6 months, Grassi 1980, Ferrari 1980[27,28]): Beneficial
- Beneficial effects (Bronchitis; sputum volume and viscosity, acute and chronic bronchitis, 600 mg/day po, n 215, 10 days, Brocard 1980[26]): Beneficial
- Beneficial effects [4]: Beneficial
- Beneficial effects [5]: Beneficial
- Treatment effect [6]: Beneficial
- time for elevated serum lactate levels to return to normal vs placebo (severe malaria; 300 mg/kg intravenously over 20 hours, 30 subjects [51]): twice as quickly
- Beneficial effects (severe malaria; quinine-treated malaria, serum lactate, 300 mg/kg IV, n 30, 20 hours, Watt 2002[51]): Beneficial
- Beneficial effects ([7]; erythrocyte GSH, GSH:GSSG ratio, plasma soluble VCAM-1, 1200 mg/day po, n 15, 1 month, De Mattia 1998[21]): Beneficial
- erythrocyte GSH concentration and rate of its synthesis ([7]; type 2 diabetics, two weeks of dietary supplementation, Jahoor ongoing study [197]): significant increases
- RR, composite cardiovascular outcome (hemodialysis patients; 134 chronic hemodialysis patients, p=0.03, [17]): 0.60
- Beneficial effects (hemodialysis patients; Homocysteine in hemodialysis, intravenous 5 g in 5% glucose solution, n 20, 1 session, Scholze 2004[273]): Beneficial
- serum oxidized LDL values at the end of the study (hemodialysis patients; chronic hemodialysis patients [17]): much lower
- Plasma homocysteine level change (hemodialysis patients; chronic oral 1200 mg BID, 4 weeks, placebo −8%, P = 0.07, Friedman 2003[276]): chronic oral NAC therapy (−19%) but did
- Beneficial effects (hemodialysis patients; composite cardiovascular end points, 600 mg bid, n 134, 1-24 months, median 14.5 months, Tepel 2003[17]): Beneficial
- Plasma homocysteine level after hemodialysis (hemodialysis patients; control group 58 +/− 22%, P < 0.01, intravenous 5 g, Scholze 2004[273]): homocysteine levels decreased to 12 +/− 7% of predialysis level (mean +
- Beneficial effects (hemodialysis patients; end-stage renal failure, plasma homocysteine, pulse pressure, endothelial function, 5 g in 5% glucose, n 20, Scholze 2004[273]): Beneficial
- Beneficial effects (Chronic blepharitis): Beneficial
- Beneficial effects (acute lung injury; RBC GSH, days of acute lung injury, cardiac index, NAC 70 mg/kg q 8 hr IV, OTZ 63 mg/kg q 8 hr IV, n 48, 10 days, Bernard 1997[222]): Beneficial
- Beneficial effects (acute lung injury; elastase activity, pretreatment 72 mg/kg bolus, 72 mg/kg over 12 hours IV, n 18, 12 hours, De Backer 1996[214]): Beneficial
- Beneficial effects (acute lung injury; mild-to-moderate ALI, systemic oxygenation, need for ventilatory support, 40 mg/kg/day IV, n 61, 3 days, Suter 1994[211]): Beneficial
- Beneficial effects (HIV infected individuals; CD4 counts > 200/ul, plasma cysteine, rate of CD4 decline, 800 mg/day po, n 45, 4 months, Akerlund 1996[47]): Beneficial
- Beneficial effects (HIV infected individuals; beginning of antiretroviral therapy, hematocrit, CD4 cell count, 600 mg/day, n 20, 180 days, Spada 2002[227]): Beneficial
- Beneficial effects (HIV infected individuals; immune function, 0.6-3.6 g depending on GSH levels po, n 69, 7 months, Breitkreutz 2000[50]): Beneficial
- adverse events, highest reported long-term NAC dosage (HIV infected individuals; in vivo): No adverse events requiring physician intervention
- Beneficial effects (HIV infected individuals; whole blood GSH and T cell GSH, 3,200-8,000 mg/day po, n 81, 8 weeks, De Rosa 2000, Herzenberg 1997[48,49]): Beneficial
